# Read-outs that look alike come from different tables or passages of the source.
# How the values were obtained:
# [1] = biological target: COVID-19 (nCoV-2019, SARS-CoV2) Mpro (Severe acute respiratory syndrome coronavirus 2, UniProt P0DTD1); test: COVID-19 (nCoV-2019, SARS-CoV2) Mpro enzymatic assay; type: biochemical; conditions: 25 nM Mpro, 25 μM substrate; read-out: COVID-19 Mpro IC50
# 229E Mpro = 229E Mpro (Human coronavirus 229E, UniProt P0C6X1); test: 229E Mpro enzymatic assay (standard methods, SARS-CoV2 Mpro assay given as exemplary); type: biochemical, human coronavirus (HCov) 229E
# Chain of 229E Mpro (P0C6X1 2966-3267): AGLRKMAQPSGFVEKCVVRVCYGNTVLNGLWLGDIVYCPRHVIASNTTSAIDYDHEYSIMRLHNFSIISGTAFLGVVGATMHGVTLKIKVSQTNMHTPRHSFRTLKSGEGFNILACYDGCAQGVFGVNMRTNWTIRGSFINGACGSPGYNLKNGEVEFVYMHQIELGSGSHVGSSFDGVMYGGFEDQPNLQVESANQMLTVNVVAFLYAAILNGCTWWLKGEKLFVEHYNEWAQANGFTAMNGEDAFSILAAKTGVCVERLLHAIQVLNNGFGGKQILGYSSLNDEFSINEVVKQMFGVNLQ
# Protocol: Compounds were assayed using standard methods to assess compound activity and IC50. As an exemplary for assessment of the SARS-COV2 Mpro, the C-His6-tagged Mpro (NC_045512) was cloned, expressed in E. coli and purified. The assay buffer contained 20 mM of Tris-HCl (pH 7.3), 100 mM of NaCl, 1 mM of EDTA, 5 mM of TCEP and 0.1% BSA. The final concentrations of the Mpro protein and substrate were 25 nM and 25 μM, respectively, in the Mpro enzymatic assay. The Km of the Mpro substrate for the protease was 13.5 μM.
# The compounds were added to an assay plate. […] For no inhibition control (ZPE, zero percent effect), no compound was added.
# IC50 values of compounds were calculated with the GraphPad Prism software using the nonlinear regression model of log(inhibitor) vs. response—Variable slope (four parameters). The inhibition activity was calculated using the formula below, IC50 values is calculated using the Inhibition % data.
# Inhibition %=[(Sample-Average ZPE)/(Average HPE-Average ZPE)]*100%^#
# HCov OC43 = test: HCoV OC43 cytopathic effect (CPE) assay, CellTiter Glo; type: cell-based, human coronavirus (HCov) OC43
# Protocol: Example 238: Evaluation of antiviral activity of compounds against human coronavirus (HCov) 229E and OC43 in the cytopathic effect (CPE) assays
# Compounds were assayed using standard methods against multiple coronaviral strains, including HCoV 229E and OC43 strains. The antiviral activity of compounds was calculated based on the protection of the virus-induced CPE at each concentration normalized by the virus control.
# Reference compound used was remdesivir; detection reagent: CellTiter Glo.) The CPE were measured by CellTiter Glo following the manufacturer's manual. The antiviral activity of compounds was calculated based on the protection of the virus-induced CPE at each concentration normalized by the virus control.
# Cell viability was measured with CellTiter Glo.
# [2] = read-out: OC43 IC50 (uM) MEDIAN, median
# [3] = Betacoronavirus 1, OC43, read-out: OC43 IC50 (uM) MEDIAN, median
SMILES,IC50 [1] [µM],EC50 (229E Mpro; read-out: 229E Mpro EC50) [µM],IC50 (HCov OC43; [2]) [µM],EC50 (229E Mpro; 229E Mpro EC50) [µM],IC50 (HCov OC43; [3]) [µM],further results
"CO[C@@H]1C[C@H](C(=O)N(c2ccc(S(F)(F)(F)(F)F)cc2)C(C(=O)NCC(C)(C)OC)c2cccnc2)N(C#N)C1 (single isomer, unassigned) [1194 Isomer 2]",10 to 30,< 2,2 to 10,,,
"CC(C)(C)c1ccc(N(C(=O)[C@H]2CCCN2C#N)C(C(=O)N2CCNC(=O)C2)c2cccnc2)cc1 (single isomer, unassigned) [Compound 961 Isomer 1]",2 to 10,,,< 2,,"IC50 (HCov OC43; read-out: OC43 IC50 (uM) MEDIAN, median, listed as 961 Isomer 1): 2 to 10 µM"
"C[C@H]1CN(C#N)[C@H]1C(=O)N(c1ccc(S(F)(F)(F)(F)F)cc1)C(C(=O)NC1CCC(F)(F)CC1)c1cncc(F)c1 (single isomer, unassigned) [1210 Isomer 2]",< 2,< 2,< 2,,,
"N#CN1C[C@H](O)C[C@@H]1C(=O)N(c1ccc(C2CC2)cc1F)C(C(=O)NC1CCCCC1)c1cccnc1 (single isomer, unassigned) [Compound 763 Isomer 1]",< 2,,,< 2,< 2,
"CO[C@@H]1C[C@H](C(=O)N(c2ccc(S(F)(F)(F)(F)F)cc2)C(C(=O)NC(C)C2CCCCN2C(=O)OC(C)(C)C)c2cccnc2)N(C#N)C1 (single isomer, unassigned) [1303 Isomer 3.1]",< 2,,< 2,< 2,,
"CO[C@@H]1C[C@H](C(=O)N(c2ccc(S(F)(F)(F)(F)F)cc2)C(C(=O)NC2CCC(F)(F)CC2)c2cnccc2C)N(C#N)C1 (single isomer, unassigned) [1199 Isomer 1]",< 2,< 2,,,< 2,
"COc1ccc(NC(=O)C(c2cccnc2)N(C(=O)[C@H]2CCCN2C#N)c2ccc(C(C)(C)C)cc2)cn1 (single isomer, unassigned) [Compound 407 Isomer 1]",< 2,,,< 2,,"IC50 (HCov OC43; read-out: OC43 IC50 (uM) MEDIAN, median, listed as 407 Isomer 1): 2 to 10 µM"
"CO[C@@H]1C[C@H](C(=O)N(c2ccc(S(F)(F)(F)(F)F)cc2)C(C(=O)NCC(=O)N2CCCC2)c2cccnc2)N(C#N)C1 (stereo partly drawn) [Compound 1182, (2R,4R)-1-cyano-4-methoxy-N-[2-oxo-2-[(2-oxo-2-pyrrolidin-1-yl-ethyl)amino]-1-(3-pyridyl)ethyl]-N-[4-(pentafluoro-λ6-sulfanyl)phenyl]pyrrolidine-2-carboxamide]",< 2,,,< 2,< 2,
"N#CN1CC[C@H]2C[C@]21C(=O)N(c1ccc(S(F)(F)(F)(F)F)cc1)C(C(=O)NC1CCC(F)(F)CC1)c1cnccc1C(F)(F)F (stereo partly drawn) [Compound 1263, (1R,5S)-2-cyano-N-[2-[(4,4-difluorocyclohexyl)amino]-2-oxo-1-[4-(trifluoromethyl)-3-pyridyl]ethyl]-N-[4-(pentafluoro-λ^6-sulfanyl)phenyl]-2-azabicyclo[3.1.0]hexane-1-carboxamide]",> 30,,,10 to 30,> 30,
CO[C@@H]1C[C@H](C(=O)N(c2ccc(S(F)(F)(F)(F)F)cc2)C(C(=O)N2CCN(C)C(=O)C2)c2cccnc2)N(C#N)C1 (stereo partly drawn) [Compound 1188],2 to 10,,,< 2,< 2,
"C[C@H](NC(=O)C(c1cncc(F)c1)N(C(=O)[C@H]1C[C@@](C)(O)CN1C#N)c1ccc(S(F)(F)(F)(F)F)cc1)c1ccccc1 (single isomer, unassigned) [1328 Isomer 2]",2 to 10,< 2,2 to 10,,,
"C[C@@]1(O)C[C@H](C(=O)N(c2ccc(S(F)(F)(F)(F)F)cc2)C(C(=O)NC2CCC(F)(F)CC2)c2ccc(F)nc2)N(C#N)C1 (single isomer, unassigned) [1157 Isomer 2]",2 to 10,< 2,2 to 10,,,
"CC(C)(C)c1ccc(N(C(=O)[C@H]2CCCN2C#N)C(C(=O)N2CCOCC2)c2cccnc2)cc1 (single isomer, unassigned) [Compound 959 Isomer 1]",> 30,,,2 to 10,,"IC50 (HCov OC43; read-out: OC43 IC50 (uM) MEDIAN, median, listed as 959 Isomer 1): 10 to 30 µM"
"CC(C(=O)NC1CCC(F)(F)CC1)(c1cccnc1)N(C(=O)[C@H]1C[C@@](C)(O)CN1C#N)c1ccc(S(F)(F)(F)(F)F)cc1 (single isomer, unassigned) [Compound 1077 Isomer 1]",10 to 30,,,< 2,2 to 10,
"CC1(C)CCN(C#N)[C@H]1C(=O)N(c1ccc(S(F)(F)(F)(F)F)cc1)C(C(=O)NC1CCC(F)(F)CC1)c1cncc(F)c1 (single isomer, unassigned) [1094 Isomer 1]",< 2,,< 2,< 2,,
"CC1(C)CN(C#N)[C@@H](C(=O)N(c2ccc(C(C)(C)C)cc2)C(C(=O)NC2CCOCC2)c2cccnc2)CO1 (single isomer, unassigned) [1141 Isomer 3]",> 30,,> 30,10 to 30,,
"N#CN1C[C@H]2C[C@H]2[C@@H]1C(=O)N(c1ccc(S(F)(F)(F)(F)F)cc1)C(C(=O)NC1CCC(F)(F)CC1)c1cncc(F)c1 (single isomer, unassigned) [Compound 1095b Isomer 1]",< 2,,,< 2,< 2,
"CO[C@H]1C[C@H](C(=O)N(c2ccc(C(C)(C)C)cc2)C(C(=O)NC2CCCCC2)c2cccnc2)N(C#N)C1 (single isomer, unassigned) [Compound 293 Isomer 2]",10 to 30,,,2 to 10,,"IC50 (HCov OC43; read-out: OC43 IC50 (uM) MEDIAN, median, listed as 293 Isomer 2): 10 to 30 µM"
"CC(C)(C)c1ccc(N(C(=O)[C@H]2CCCN2C#N)C(C(=O)NCCN2CCOCC2)c2cccnc2)cc1 (single isomer, unassigned) [391 Isomer 2]",10 to 30,,10 to 30,2 to 10,,
"C[C@@]1(O)C[C@H](C(=O)N(c2ccc(-c3ccccc3)cc2)C(C(=O)NC2CCC(F)(F)CC2)c2cncc(F)c2)N(C#N)C1 (single isomer, unassigned) [1330 Isomer 2]",2 to 10,,10 to 30,2 to 10,,
"CO[C@@H]1C[C@H](C(=O)N(c2ccc(C(C)(C)C)cc2)C(C)(C(=O)NC2CCC(F)(F)CC2)c2cnccn2)N(C#N)C1 (single isomer, unassigned) [1198 Isomer 2]",< 2,,< 2,< 2,,
"C[C@@]1(O)C[C@H](C(=O)N(c2ccc(S(F)(F)(F)(F)F)cc2)C(C(=O)NC2CCC(F)(F)CC2)c2cccnc2F)N(C#N)C1 (single isomer, unassigned) [1158 Isomer 2]",2 to 10,< 2,< 2,,,
"CC(C)(C)c1ccc(N(C(=O)[C@H]2CCCN2C#N)C(C(=O)NCc2ccncc2)c2cccnc2)cc1 (single isomer, unassigned) [Compound 439 Isomer 2]",2 to 10,< 2,10 to 30,,,
"CO[C@@H]1C[C@H](C(=O)N(c2ccc(S(F)(F)(F)(F)F)cc2)C(C(=O)N2CCCC3(COC3)C2)c2cccnc2)N(C#N)C1 (single isomer, unassigned) [1175 Isomer 2]",10 to 30,< 2,2 to 10,,,
"CC(C)(C)c1ccc(N(C(=O)[C@H]2CC(=O)CN2C#N)C(C(=O)NC2CCCCC2)c2cccnc2)cc1 (single isomer, unassigned) [Compound 278 Isomer 1]",2 to 10,,,< 2,10 to 30,
"CO[C@@H]1C[C@H](C(=O)N(c2ccc(S(F)(F)(F)(F)F)cc2)C(C(=O)NC2C[C@@H](C)O[C@@H](C)C2)c2cccnc2)N(C#N)C1 (single isomer, unassigned) [Compound 1185]",< 2,,,< 2,< 2,
"C[C@H](NC(=O)C(c1cccnc1)N(C(=O)c1ccco1)c1ccc(-c2ccccc2)cc1)c1ccccc1 (single isomer, unassigned) [1353 Isomer 2]",> 30,,> 30,> 30,,
"CS(=O)(=O)[C@H]1C[C@H](C(=O)N(c2ccc(S(F)(F)(F)(F)F)cc2)C(C(=O)NC2CCC(F)(F)CC2)c2cncc(F)c2)N(C#N)C1 (single isomer, unassigned) [1105 Isomer 1]",< 2,,,< 2,< 2,
"O=C(NC1CCC(F)(F)CC1)C(c1cncc(F)c1)N(C(=O)c1cnc[nH]1)c1ccc(S(F)(F)(F)(F)F)cc1 (single isomer, unassigned) [1337 Isomer 2, N-[2-[(4,4-difluorocyclohexyl)amino]-1-(5-fluoro-3-pyridyl)-2-oxo-ethyl]-N-[4-(pentafluoro-λ6-sulfanyl)phenyl]-1H-imidazole-5-carboxamide]",10 to 30,2 to 10,> 30,,,

# — US20220380347A1, “INHIBITORS OF CYSTEINE PROTEASES AND METHODS OF USE THEREOF” (Pardes Biosciences, Inc., priority 2020, published 2022)
